The values below come from PubChem BioAssay AID330 (DTP/NCI, 2004).

Where “and” joins values, the source holds several entries; their conditions need not be identical. Equal values may be shown once. Toxic doses and inconclusive results are not listed. Peptide text beside a SMILES is read from it. * marks the point of attachment. Cbz = O=C(OCc1ccccc1)*

The experiment relates to P388 leukemia ip, CD2F1 mice, survival T/C. The experiment in a line: NCI In Vivo Anticancer Drug Screen. Data for tumor model P388 Leukemia (intraperitoneal) in CD2F1 (CDF1) mice. The following applies: endpoint: median survival time, higher = longer survival. Put shortly: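 Mice carrying the transplanted tumor received test compound or vehicle. Survival was recorded in each group, and the value is the treated-group measurement divided by that of the vehicle-treated control group.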

Setting [1] is: dose: 50.0 mg/kg/injection, schedule: Q01DX009 (ip), vehicle: saline with Tween-80.
[2] abbreviates: dose: 100.0 mg/kg/injection, schedule: Q01DX001 (ip), vehicle: saline.
Setting [3] is: dose: 200.0 mg/kg/injection, schedule: Q01DX001 (ip), vehicle: saline.
Setting [4] is: dose: 50.0 mg/kg/injection, schedule: Q01DX005 (ip), vehicle: saline with Tween-80.
Where [5] appears, read: dose: 100.0 mg/kg/injection, schedule: Q01DX005 (ip), vehicle: saline with Tween-80.
The mark [6] stands for this setting: dose: 100.0 mg/kg/injection, schedule: Q01DX009 (ip), vehicle: saline with Tween-80.
Where [7] appears, read: dose: 200.0 mg/kg/injection, schedule: Q01DX009 (ip), vehicle: saline with Tween-80.
Setting [8] is: dose: 200.0 mg/kg/injection, schedule: Q01DX005 (ip), vehicle: saline with Tween-80.
Where [9] appears, read: dose: 50.0 mg/kg/injection, schedule: Q01DX005 (ip), vehicle: Klucel (hydroxypropylcellulose) (HPC).
[10] abbreviates: dose: 100.0 mg/kg/injection, schedule: Q01DX005 (ip), vehicle: Klucel (hydroxypropylcellulose) (HPC).
Where [11] appears, read: dose: 200.0 mg/kg/injection, schedule: Q01DX005 (ip), vehicle: Klucel (hydroxypropylcellulose) (HPC).

Consider `CC(=O)OCC12CCC(C)=CC1O[C@H]1[C@@H](OC(C)=O)[C@H](OC(C)=O)[C@]2(C)[C@@]12CO2` (stereo not given in full), for which the T/C (dose: 0.2 mg/kg/injection, schedule: Q01DX009 (ip), vehicle: saline + alcohol) was 115 % of control; the T/C (dose: 0.8 mg/kg/injection, schedule: Q01DX009 (ip), vehicle: saline + alcohol) is 173 % of control; the T/C (dose: 2.0 mg/kg/injection, schedule: Q04DX003 (ip), vehicle: saline + alcohol) is 120 % of control.

As to `COc1cc2c(cc1OC)C(CCN1C(=O)CCC1=O)=NCC2`, the T/C reads like this: (dose: 50.0 mg/kg/injection, schedule: Q01DX009 (ip), vehicle: saline sonified) 100 % of control; (dose: 100.0 mg/kg/injection, schedule: Q01DX009 (ip), vehicle: saline sonified) 100 % of control; (dose: 200.0 mg/kg/injection, schedule: Q01DX009 (ip), vehicle: saline sonified) 95 % of control.

Take `C=C1CC/C=C(\C)C(=O)C[C@@H]2[C@@H]1CC2(C)C`: the T/C by setting is: (dose: 0.37 mg/kg/injection, schedule: Q01DX009 (ip), vehicle: saline + alcohol) 106 % of control; (dose: 0.75 mg/kg/injection, schedule: Q01DX009 (ip), vehicle: saline + alcohol) 108 % of control; (dose: 1.5 mg/kg/injection, schedule: Q01DX009 (ip), vehicle: saline + alcohol) 106 % of control; (dose: 3.0 mg/kg/injection, schedule: Q01DX009 (ip), vehicle: saline + alcohol) 94 % of control; (dose: 6.0 mg/kg/injection, schedule: Q01DX009 (ip), vehicle: saline + alcohol) 98 % of control.

In the case of `O=C1CC2C(C1Nc1ccccc1)C1C(=Nc3ccccc3)C(Nc3ccccc3)=CC1N2c1ccccc1` (stereo not given), the T/C reads like this: (dose: 7.5 mg/kg/injection, schedule: Q01DX005 (ip), vehicle: Klucel (hydroxypropylcellulose) (HPC)) 100 % of control; (dose: 15.0 mg/kg/injection, schedule: Q01DX005 (ip), vehicle: Klucel (hydroxypropylcellulose) (HPC)) 97 % of control; (dose: 30.0 mg/kg/injection, schedule: Q01DX005 (ip), vehicle: Klucel (hydroxypropylcellulose) (HPC)) 95 % of control.

With `CC(C)=COS(=O)(=O)C(F)(F)F`, the T/C is 99 % of control (dose: 50.0 mg/kg/injection, schedule: Q01DX009 (ip), vehicle: olive oil, sesame oil, peanut oil); 96 % of control (dose: 100.0 mg/kg/injection, schedule: Q01DX009 (ip), vehicle: olive oil, sesame oil, peanut oil); 90 % of control (dose: 200.0 mg/kg/injection, schedule: Q01DX009 (ip), vehicle: olive oil, sesame oil, peanut oil).

In the case of `Cc1cc(NC(=S)SCc2ccc(Cl)cc2)ccc1Cl`, the T/C was 103 % of control and 118 % of control (dose: 50.0 mg/kg/injection, schedule: Q01DX009 (ip), vehicle: Klucel (hydroxypropylcellulose) (HPC)); 97 % of control (dose: 50.0 mg/kg/injection, schedule: Q01DX009 (ip), vehicle: suspension in saline); 92 % of control (dose: 100.0 mg/kg/injection, schedule: Q01DX009 (ip), vehicle: suspension in saline); 96 % of control (dose: 200.0 mg/kg/injection, schedule: Q01DX009 (ip), vehicle: suspension in saline).

Turning to `Cc1ccc(N=C(SSC(Cl)(Cl)Cl)SSC(Cl)(Cl)Cl)cc1`, the T/C (dose: 6.25 mg/kg/injection, schedule: Q01DX009 (ip), vehicle: saline with Tween-80) was 91 % of control; the T/C (dose: 12.5 mg/kg/injection, schedule: Q01DX009 (ip), vehicle: saline with Tween-80) was 99 % of control; the T/C (dose: 25.0 mg/kg/injection, schedule: Q01DX009 (ip), vehicle: saline with Tween-80) was 100 % of control; the T/C (dose: 50.0 mg/kg/injection, schedule: Q01DX009 (ip), vehicle: saline + alcohol) was 104 % of control; the T/C under setting [1] was 101 % of control.

As to `C(=C(\CCc1ccccn1)c1ccccn1)/c1cccnc1`, the T/C under setting [2] was 100 % of control; the T/C under setting [3] is 101 % of control; the T/C (dose: 400.0 mg/kg/injection, schedule: Q01DX001 (ip), vehicle: saline) is 104 % of control.

For `Cc1ccc(S(=O)(=O)OC2COC(OCc3ccccc3)C(OS(=O)(=O)c3ccc(C)cc3)C2O)cc1` (stereo not given), the T/C runs as follows: under setting [4], 100 % of control; under setting [5], 86 % of control.

For `CCN(CC)CCOc1ccc(C(=O)CC(=O)c2c(-c3ccccc3)n(C)c3ccccc23)cc1`, the T/C is, setting by setting: (dose: 50.0 mg/kg/injection, schedule: Q01DX001 (ip), vehicle: saline) 101 % of control; under setting [2], 94 % of control; under setting [3], 91 % of control.

For `CCOP(=O)(O)C1CCCC(C)[N-]1.CCOP(=O)(O)C1CCCC(C)[N-]1.CCOP(=O)(O)C1CCCC(C)[N-]1.[Cr+3]` (stereo not given), the T/C (dose: 100.0 mg/kg/injection, schedule: Q04DX003 (ip), vehicle: Klucel (hydroxypropylcellulose) (HPC)) is 100 % of control and the T/C (dose: 200.0 mg/kg/injection, schedule: Q04DX003 (ip), vehicle: Klucel (hydroxypropylcellulose) (HPC)) is 92 % of control.

`Cc1ccc(S(=O)(=O)NC(=O)Nc2sc(=S)c3c(c2C#N)CCCC3)cc1`: the T/C is, setting by setting: under setting [4], 100 % of control; under setting [5], 103 % of control.

Consider `CC(C)(C)N=C(CC(=NC(C)(C)C)Nc1ccccc1Cl)Nc1ccccc1Cl`, for which the T/C runs as follows: under setting [1], 91 % of control; under setting [6], 92 % of control; under setting [7], 86 % of control.

Turning to `c1cn2cnnc2n2cnnc12`, the T/C is 100 % of control under setting [4], 105 % of control under setting [5] and 97 % of control under setting [8].

Take `OC(c1ccccc1)(c1ccc(Br)cc1)C1CC1` (stereo not given): the T/C (dose: 25.0 mg/kg/injection, schedule: Q01DX001 (ip), vehicle: Klucel (hydroxypropylcellulose) (HPC)) is 100 % of control; the T/C (dose: 50.0 mg/kg/injection, schedule: Q01DX001 (ip), vehicle: Klucel (hydroxypropylcellulose) (HPC)) is 96 % of control; the T/C (dose: 100.0 mg/kg/injection, schedule: Q01DX001 (ip), vehicle: Klucel (hydroxypropylcellulose) (HPC)) was 97 % of control.

As for `N#CC(C(=O)O)c1ccc([N+](=O)[O-])cc1` (stereo not given), the T/C was 105 % of control under setting [9], 96 % of control under setting [10] and 99 % of control under setting [11].

`CC(=O)Nc1ccc(S(=O)(=O)Oc2noc3ccc(Cl)cc23)cc1`: the T/C (dose: 100.0 mg/kg/injection, schedule: Q04DX002 (ip), vehicle: Klucel (hydroxypropylcellulose) (HPC)) was 98 % of control; the T/C (dose: 200.0 mg/kg/injection, schedule: Q04DX002 (ip), vehicle: Klucel (hydroxypropylcellulose) (HPC)) was 98 % of control; the T/C (dose: 400.0 mg/kg/injection, schedule: Q04DX002 (ip), vehicle: Klucel (hydroxypropylcellulose) (HPC)) was 93 % of control.

`O=C(CN1CCOCC1)Nc1nc(-c2ccc(Cl)cc2)cs1`: the T/C is 98 % of control (dose: 25.0 mg/kg/injection, schedule: Q01DX005 (ip), vehicle: DMSO); 100 % of control (dose: 50.0 mg/kg/injection, schedule: Q01DX005 (ip), vehicle: DMSO); 99 % of control (dose: 100.0 mg/kg/injection, schedule: Q01DX005 (ip), vehicle: DMSO); 95 % of control (dose: 200.0 mg/kg/injection, schedule: Q01DX005 (ip), vehicle: DMSO); 98 % of control (dose: 400.0 mg/kg/injection, schedule: Q01DX005 (ip), vehicle: DMSO).

Turning to `O=C1OC2CCCC1O2` (stereo not given), the T/C under setting [4] was 106 % of control, the T/C under setting [5] is 100 % of control and the T/C under setting [8] was 98 % of control.

`CN(C)c1ccc(/C=C2\SC(=S)N(CCCN3CCOCC3)C2=O)cc1`: the T/C is, setting by setting: under setting [1], 91 % of control; under setting [6], 90 % of control; under setting [7], 87 % of control.

Take `COC(=O)C(CO)NC(=O)C(CO)NC(=O)OCc1ccccc1` (stereo not drawn) (Cbz-Ser-Ser-OMe; configuration not given here): the T/C was 100 % of control under setting [9], 98 % of control under setting [10] and 101 % of control under setting [11].

With `O=c1oc2ccccc2c(O)c1C(c1ccc2c(c1)OCO2)N1CCOCC1` (stereo not given), the T/C runs as follows: (dose: 50.0 mg/kg/injection, schedule: Q01DX005 (ip), vehicle: saline) 113 % of control; (dose: 100.0 mg/kg/injection, schedule: Q01DX005 (ip), vehicle: saline) 110 % of control; (dose: 200.0 mg/kg/injection, schedule: Q01DX005 (ip), vehicle: saline) 103 % of control.
